Reference: patent publication US9493539B2, “Peptides associated with HLA-DR MHC class II molecules involved in autoimmune diseases” (LONDON HEALTH SCIENCES CENTRE RESEARCH INC., priority 2003, dated 2016)
Blank lines part the entries; values can stand above or below the substance they belong to. Square brackets hold non-standard residues; d marks the D form. Ends that are not written are not given here. Cit = NC(=O)NCCC[C@H](N)C(=O)O

Experiments:
[1] = tested on: draining lymph node cells; assay: IFN-γ production by ELISA after in vitro challenge with immunizing peptide; assay type: cell-based, mouse; conditions: DR4-IE tg mice immunized with the peptide
Experimental: (§1) DR4 tg mice were immunized intradermally at the interior side of both hind legs with 100 μl of peptide (1 μg/μl) emulsified in CFA (Difco Laboratories, Detroit, Mich.) in a 1:1 volume ratio. After 10 days, mice were sacrificed and their draining lymph nodes were removed for in vitro proliferation and cytokine assays.
(§2) Cell suspensions were prepared from the draining lymph nodes and cultured in 96-well plates at a concentration of 4×10^5 cells/well in the presence or absence of peptide antigen for 4 days. Anti-DR antibody (BD PharMingen, Mississauga, ON) was added to some cultures (1 μg/ml) to confirm DR restricted T cell responses as described previously (Andersson E C, Hansen B E, Jacobsen H, Madsen L S, Andersen C B, Engberg J, Rothbard J B, McDevitt G S, Malmstrom V, Holmdahl R, Svejgaard A, Fugger L. 1998. Definition of MHC and T cell receptor contacts in the HLA-DR4 restricted immunodominant epitope in type II collagen and characterization of collagen-induced arthritis in HLA-DR4 and human CD4 transgenic mice. Proc. Natl. Acad. Sci. USA. 95:7574). Culture supernatants were removed after 78 hrs to test IFN-γ production by ELISA (BD PharMingen, Mississauga, ON) as described previously (Hill, J. A., Wang, D., Jevnikar, A. M., Cairns, E., Bell, D. A. 2002. The relationship between predicted peptide-MHC class II affinity and T cell activation in a HLA-DRβ1*0401 MHC class II mouse model. Arthritis Res. 5:R40). Cytokine production was measured in duplicate and represents the average antigen specific cytokine production (cytokine production in control samples+2 SD were subtracted from the peptide specific cytokine production)±SD. Eighteen hours before culture termination, 1 μCi of [^3H] thymidine (ICN Biomedicals, Montreal, PQ) was added to each well to assess T cell proliferation. Proliferation experiments were conducted in triplicate and results are presented as average proliferation in cpm±SD or stimulation index (cpm of experimental sample/cpm of control sample)±SEM.

[2] = tested on: draining lymph node cells; assay: T cell proliferation recall response ([3H] thymidine) after peptide immunization of DR4-IE tg mice; assay type: cell-based, mouse; conditions: for T cell proliferative response: DR4-IE tg mice immunized with the peptide, 10 days later cells challenged in vitro with same peptide; for proliferative response in presence of anti-DR antibody: immunizing peptide plus anti-DR antibody
Experimental: as §1, §2

[3] = tested on: shared epitope negative (DRB1*0301, *0701, *0802, *1101, *1302); assay: Peptide-binding (competition) assay to purified MHC class II; design: species or system human
Experimental: (§3) Peptide binding affinity to purified HLA-DRB1*0101, *0401, *0404, *0301, *0701, *0802, *1101, and *1302 molecules was determined relative to radio-labelled peptide probes as described previously (Southwood S, Sidney J, Kondo A, del Guercio M F, Appella E, Hoffman S, Kubo R T, Chesnut R W, Grey H M, Sette A. 1998. Several common HLA-DR types share largely overlapping peptide binding repertoires. J. Immunol. 160:3363). The nM concentration of unlabelled vimentin peptide necessary for 50% inhibition of the labelled peptide to the purified HLA-DRB1 molecules (IC50) was used as an approximation of the affinity of interaction ([…]). Results are expressed as the inverse of the IC50 values measured in nM.

HLA-DRB1*0101 = HLA-DRB1*0101 (Homo sapiens, UniProt P01903+P01911, A100R/D57E/F55L/F60I/F76Y/I96L/L162R/M171V/P40L/Q125E/R42F/V115G/Y59C); assay: as above; conditions: DRB1*0101, shared epitope positive
Experimental: as §3

HLA-DRB1*0401 = HLA-DRB1*0401 (Homo sapiens, UniProt P01903+P01911, A100K/A169T/F76Y/I96L/K127E/L162R/M171V/N62H/P40V/Q125Y/R42H/S133A/S149N/S66Y/V115G/V209L/W38E); assay: as above; conditions: DRB1*0401, shared epitope positive
Experimental: as §3

HLA-DRB1*0404 = HLA-DRB1*0404 (Homo sapiens, UniProt P01903+P01911, A100R/A169T/F76Y/I96L/K127E/L162R/M171V/N62H/P40V/Q125Y/R42H/S133A/S149N/S66Y/V209L/W38E); assay: as above; conditions: DRB1*0404, shared epitope positive
Experimental: as §3

Substance: AGWLACitRSVRYPI (AGWLA[Cit]RSVRYPI) [P4Cit, altered human aggrecan peptide 280-292]
IFN-γ production [1]: induced
T cell proliferative response [2]: induced
proliferative response in presence of anti-DR antibody [2]: inhibited

Substance: AGWLADRSVRYPI (Human) [P4D, human aggrecan peptide 280-292]
IFN-γ production [1]: accompanied by IFN-γ production
T cell proliferative response [2]: strong proliferative response
proliferative response in presence of anti-DR antibody [2]: inhibited

Substance: AGWLARRSVRYPI (Human) [P4R, altered human aggrecan peptide 280-292]
IFN-γ production [1]: did not induce
T cell proliferative response [2]: did not induce

change of peptide affinity on conversion of arginine to citrulline ([3]; vs Vim 65-77): did not increase peptide affinity
relative affinity for purified MHC (HLA-DRB1*0101): strikingly high affinity
relative affinity for purified MHC (HLA-DRB1*0401): strikingly high affinity
relative affinity for purified MHC (HLA-DRB1*0404): strikingly high affinity
Substance: SAVRACitSSVPGVR (SAVRA[Cit]SSVPGVR) [Vim R70Cit, altered human vimentin peptide 65-77]
IFN-γ production [1]: accompanied by IFN-γ production
T cell proliferative response [2]: strong proliferative response
proliferative response in presence of anti-DR antibody [2]: could also be inhibited

Substance: SAVRARSSVPGVR (Human) [Vim 65-77, human vimentin peptide 65-77, unmodified]
IFN-γ production [1]: did not induce T cell activation
relative affinity for purified MHC [3]: low to intermediate affinity
relative affinity for purified MHC (HLA-DRB1*0101): low to intermediate affinity
relative affinity for purified MHC (HLA-DRB1*0401): low to intermediate affinity
relative affinity for purified MHC (HLA-DRB1*0404): low to intermediate affinity
T cell proliferative response [2]: did not induce T cell activation
activation of T cells primed by Vim R70Cit ([2]; Vim R70Cit immunized mice, challenged with the unmodified peptide, 10 μg/ml): could not be activated
